Test [1] has as its target Maternal embryonic leucine zipper kinase (Homo sapiens) (UniProt Q14680). Briefly: Inhibition of wild-type human full length MELK (M1 to V651 residues) expressed in bacterial expression system at 1 uM by Kinomescan method relative to control.
In test [2] the target is Mitogen-activated protein kinase kinase kinase 2 (Homo sapiens) (UniProt Q9Y2U5). Briefly: Inhibition of wild-type human partial length MAP3K2 (S315 to H619 residues) expressed in mammalian expression system at 1 uM by Kinomescan method relative to control.
In test [3] the target is LIM domain kinase 2 (Homo sapiens) (UniProt P53671). Briefly: Inhibition of wild-type human full length LIMK2 (M1 to P638 residues) expressed in bacterial expression system at 1 uM by Kinomescan method relative to control.
The test system of test [4] is Tyrosine-protein kinase ABL1 (Homo sapiens), P00519 [T315I]. Briefly: Inhibition of human phosphorylated ABL1 T315I mutant (S229 to K512 residues) expressed in mammalian expression system at 1 uM by Kinomescan method relative to control.
For test [5], the target named is Ankyrin repeat and protein kinase domain-containing protein 1 (Homo sapiens) (UniProt Q8NFD2). Briefly: Inhibition of wild-type human partial length ANKK1 (M1 to A305 residues) expressed in mammalian expression system at 1 uM by Kinomescan method relative to control.
The target in test [6] is Tyrosine-protein kinase ABL2 (Homo sapiens) (UniProt P42684). Briefly: Inhibition of wild-type human ABL2 (A248 to G542 residues) expressed in bacterial expression system at 1 uM by Kinomescan method relative to control.
Chain of Tyrosine-protein kinase ABL2 (Homo sapiens) (P42684 whole entry, the tested form may be a part): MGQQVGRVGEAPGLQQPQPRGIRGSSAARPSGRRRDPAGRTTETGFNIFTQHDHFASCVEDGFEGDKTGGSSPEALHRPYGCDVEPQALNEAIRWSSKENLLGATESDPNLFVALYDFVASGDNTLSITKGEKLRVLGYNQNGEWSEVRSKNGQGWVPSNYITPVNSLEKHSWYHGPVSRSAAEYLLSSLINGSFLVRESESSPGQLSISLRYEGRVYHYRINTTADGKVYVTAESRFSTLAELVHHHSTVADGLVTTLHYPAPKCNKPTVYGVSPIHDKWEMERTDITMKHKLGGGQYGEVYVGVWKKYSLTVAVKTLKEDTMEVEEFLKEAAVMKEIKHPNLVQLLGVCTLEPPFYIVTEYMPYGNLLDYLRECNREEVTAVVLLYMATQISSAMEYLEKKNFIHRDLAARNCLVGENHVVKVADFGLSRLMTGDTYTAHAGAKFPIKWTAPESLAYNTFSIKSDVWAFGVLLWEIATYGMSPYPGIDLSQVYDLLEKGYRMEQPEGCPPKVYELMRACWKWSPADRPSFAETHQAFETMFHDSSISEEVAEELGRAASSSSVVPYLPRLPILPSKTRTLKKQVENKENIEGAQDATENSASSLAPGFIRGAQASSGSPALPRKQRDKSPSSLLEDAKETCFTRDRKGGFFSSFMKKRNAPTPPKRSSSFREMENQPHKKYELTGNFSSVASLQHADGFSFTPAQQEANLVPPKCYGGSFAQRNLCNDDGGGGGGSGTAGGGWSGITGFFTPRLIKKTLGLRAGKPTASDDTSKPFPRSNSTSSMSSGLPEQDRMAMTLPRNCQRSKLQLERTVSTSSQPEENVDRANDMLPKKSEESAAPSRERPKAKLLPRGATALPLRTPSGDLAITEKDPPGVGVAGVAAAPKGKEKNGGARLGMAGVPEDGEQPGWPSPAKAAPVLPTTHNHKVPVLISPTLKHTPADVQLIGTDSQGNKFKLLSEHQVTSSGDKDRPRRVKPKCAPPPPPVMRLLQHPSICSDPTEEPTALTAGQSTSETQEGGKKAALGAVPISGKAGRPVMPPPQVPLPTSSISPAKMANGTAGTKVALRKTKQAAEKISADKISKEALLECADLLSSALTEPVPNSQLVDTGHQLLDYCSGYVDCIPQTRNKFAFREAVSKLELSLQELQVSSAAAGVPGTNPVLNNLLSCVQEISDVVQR
For test [7], the target named is Serine/threonine-protein kinase RIO2 (Homo sapiens) (UniProt Q9BVS4). Briefly: Inhibition of wild-type human partial length RIOK2 (M1 to D313 residues) expressed in mammalian expression system at 1 uM by Kinomescan method relative to control.
Test [8] deals with Phosphatidylinositol 4,5-bisphosphate 3-kinase catalytic subunit alpha isoform (Homo sapiens), P42336 [E542K]. Briefly: Inhibition of human partial length PIK3CA E542K mutant (R108 to N1068 residues) expressed in mammalian expression system at 1 uM by Kinomescan method relative to control.
The target of test [9] is Tyrosine-protein kinase Srms (Homo sapiens) (UniProt Q9H3Y6). Briefly: Inhibition of wild-type human partial length SRMS (L208 to P488 residues) expressed in mammalian expression system at 1 uM by Kinomescan method relative to control.
For test [10], the system named is Epidermal growth factor receptor (Homo sapiens), P00533 [L858R,T790M]. Briefly: Inhibition of human partial length EGFR L858R/T790M double mutant (R669 to V1011 residues) expressed in mammalian expression system at 1 uM by Kinomescan method relative to control.
Chain of Epidermal growth factor receptor (Homo sapiens), P00533 [L858R,T790M] (P00533 whole entry T790M/L858R, looked up, the tested form may be a part): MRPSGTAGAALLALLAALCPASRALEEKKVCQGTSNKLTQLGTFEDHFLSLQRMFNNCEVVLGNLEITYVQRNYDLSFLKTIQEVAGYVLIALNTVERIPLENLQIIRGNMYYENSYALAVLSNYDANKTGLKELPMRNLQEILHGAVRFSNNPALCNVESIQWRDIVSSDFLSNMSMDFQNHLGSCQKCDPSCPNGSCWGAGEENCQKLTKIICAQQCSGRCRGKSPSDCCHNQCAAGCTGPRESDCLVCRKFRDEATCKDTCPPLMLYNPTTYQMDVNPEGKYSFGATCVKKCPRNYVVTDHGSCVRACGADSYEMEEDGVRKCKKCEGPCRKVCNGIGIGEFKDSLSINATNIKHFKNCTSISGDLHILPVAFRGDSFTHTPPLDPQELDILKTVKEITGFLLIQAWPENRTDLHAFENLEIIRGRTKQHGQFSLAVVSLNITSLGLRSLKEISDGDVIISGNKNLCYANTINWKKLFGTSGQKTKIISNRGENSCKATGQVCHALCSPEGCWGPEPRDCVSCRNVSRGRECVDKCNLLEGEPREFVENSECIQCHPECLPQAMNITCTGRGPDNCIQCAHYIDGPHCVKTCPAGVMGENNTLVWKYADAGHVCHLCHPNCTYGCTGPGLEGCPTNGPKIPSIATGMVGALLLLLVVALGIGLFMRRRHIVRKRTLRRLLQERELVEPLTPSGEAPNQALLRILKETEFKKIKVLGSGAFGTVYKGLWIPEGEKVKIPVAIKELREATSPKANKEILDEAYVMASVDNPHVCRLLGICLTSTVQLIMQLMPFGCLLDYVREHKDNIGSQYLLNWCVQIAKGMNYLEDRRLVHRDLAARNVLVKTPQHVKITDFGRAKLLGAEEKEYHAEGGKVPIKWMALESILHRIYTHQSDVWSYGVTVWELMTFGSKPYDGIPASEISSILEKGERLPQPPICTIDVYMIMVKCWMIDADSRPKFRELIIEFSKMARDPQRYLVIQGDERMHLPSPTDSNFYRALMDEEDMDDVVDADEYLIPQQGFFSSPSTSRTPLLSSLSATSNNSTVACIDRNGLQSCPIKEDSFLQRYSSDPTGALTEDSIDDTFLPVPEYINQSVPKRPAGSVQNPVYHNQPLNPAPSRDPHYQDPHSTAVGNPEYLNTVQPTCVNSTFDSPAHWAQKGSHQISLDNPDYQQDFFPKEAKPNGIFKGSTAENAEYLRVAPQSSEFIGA
The target of test [11] is Tyrosine-protein kinase Yes (Homo sapiens) (UniProt P07947). Briefly: Inhibition of wild-type human partial length YES (T257 to L543 residues) expressed in bacterial expression system at 1 uM by Kinomescan method relative to control.
Test [12] concerns the target 5'-AMP-activated protein kinase catalytic subunit alpha-1 (Homo sapiens) (UniProt Q13131). Briefly: Inhibition of wild-type human partial length AMPK alpha1 (M1 to E306 residues) expressed in bacterial expression system at 1 uM by Kinomescan method relative to control.
Test [13] has as its target Ephrin type-B receptor 3 (Homo sapiens) (UniProt P54753). Briefly: Inhibition of wild-type human partial length EPHB3 (Q599 to T928 residues) expressed in bacterial expression system at 1 uM by Kinomescan method relative to control.
Test [14] concerns the target Serine/threonine-protein kinase SIK2 (Homo sapiens) (UniProt Q9H0K1). Briefly: Inhibition of wild-type human full length SIK2 (M1 to N926 residues) expressed in bacterial expression system at 1 uM by Kinomescan method relative to control.
The target in test [15] is Inhibitor of nuclear factor kappa-B kinase subunit beta (Homo sapiens) (UniProt O14920). Briefly: Inhibition of wild-type human full length IKK-beta (M1 to S756 residues) expressed in mammalian expression system at 1 uM by Kinomescan method relative to control.
The target of test [16] is Cyclin-dependent kinase-like 1 (Homo sapiens) (UniProt Q00532). Briefly: Inhibition of wild-type human full length CDKL1 (M1 to I358 residues) expressed in mammalian expression system at 1 uM by Kinomescan method relative to control.
Test [17] has as its target NUAK family SNF1-like kinase 2 (Homo sapiens) (UniProt Q9H093). Briefly: Inhibition of wild-type human partial length SNARK (P22 to A333 residues) expressed in mammalian expression system at 1 uM by Kinomescan method relative to control.
Test [18] deals with 1-phosphatidylinositol 3-phosphate 5-kinase (Homo sapiens) (UniProt Q9Y2I7). Briefly: Inhibition of wild-type human partial length PIKFYVE (F1512 to C2098 residues) expressed in mammalian expression system at 1 uM by Kinomescan method relative to control.
Test [19] deals with Serine/threonine-protein kinase ULK1 (Homo sapiens) (UniProt O75385). Briefly: Inhibition of wild-type human partial length ULK1 (M1 to T309 residues) expressed in mammalian expression system at 1 uM by Kinomescan method relative to control.
Test [20] has as its target Phosphatidylinositol 4,5-bisphosphate 3-kinase catalytic subunit beta isoform (Homo sapiens) (UniProt P42338). Briefly: Inhibition of wild-type human partial length PIK3CB (P118 to S1070 residues) expressed in mammalian expression system at 10 uM by Kinomescan method relative to control.
Test [21] concerns the target Mitogen-activated protein kinase kinase kinase 15 (Homo sapiens) (UniProt Q6ZN16). Briefly: Inhibition of wild-type human partial length MAP3K15 (T625 to L932 residues) expressed in mammalian expression system at 10 uM by Kinomescan method relative to control.
The target in test [22] is Angiopoietin-1 receptor (Homo sapiens) (UniProt Q02763). Briefly: Inhibition of wild-type human partial length TIE2 (N804 to T1112 residues) expressed in bacterial expression system at 10 uM by Kinomescan method relative to control.
Test [23] has as its system Tyrosine-protein kinase ABL1 (Homo sapiens), P00519 [M351T]. Briefly: Inhibition of human phosphorylated ABL1 M351T mutant (S229 to K512 residues) expressed in mammalian expression system at 10 uM by Kinomescan method relative to control.
Test [24] has as its target Serine/threonine-protein kinase Nek2 (Homo sapiens) (UniProt P51955). Briefly: Inhibition of wild-type human partial length NEK2 (M1 to K309 residues) expressed in bacterial expression system at 10 uM by Kinomescan method relative to control.
Test [25] addresses Tyrosine-protein kinase Fes/Fps (Homo sapiens) (UniProt P07332). Briefly: Inhibition of wild-type human partial length FES (I527 to R822 residues) expressed in bacterial expression system at 10 uM by Kinomescan method relative to control.
The target in test [26] is Homeodomain-interacting protein kinase 4 (Homo sapiens) (UniProt Q8NE63). Briefly: Inhibition of wild-type human partial length HIPK4 (M1 to V384 residues) expressed in bacterial expression system at 10 uM by Kinomescan method relative to control.

Chain of Phosphatidylinositol 4,5-bisphosphate 3-kinase catalytic subunit beta isoform (Homo sapiens) (P42338 whole entry, looked up, the tested form may be a part, canonical isoform): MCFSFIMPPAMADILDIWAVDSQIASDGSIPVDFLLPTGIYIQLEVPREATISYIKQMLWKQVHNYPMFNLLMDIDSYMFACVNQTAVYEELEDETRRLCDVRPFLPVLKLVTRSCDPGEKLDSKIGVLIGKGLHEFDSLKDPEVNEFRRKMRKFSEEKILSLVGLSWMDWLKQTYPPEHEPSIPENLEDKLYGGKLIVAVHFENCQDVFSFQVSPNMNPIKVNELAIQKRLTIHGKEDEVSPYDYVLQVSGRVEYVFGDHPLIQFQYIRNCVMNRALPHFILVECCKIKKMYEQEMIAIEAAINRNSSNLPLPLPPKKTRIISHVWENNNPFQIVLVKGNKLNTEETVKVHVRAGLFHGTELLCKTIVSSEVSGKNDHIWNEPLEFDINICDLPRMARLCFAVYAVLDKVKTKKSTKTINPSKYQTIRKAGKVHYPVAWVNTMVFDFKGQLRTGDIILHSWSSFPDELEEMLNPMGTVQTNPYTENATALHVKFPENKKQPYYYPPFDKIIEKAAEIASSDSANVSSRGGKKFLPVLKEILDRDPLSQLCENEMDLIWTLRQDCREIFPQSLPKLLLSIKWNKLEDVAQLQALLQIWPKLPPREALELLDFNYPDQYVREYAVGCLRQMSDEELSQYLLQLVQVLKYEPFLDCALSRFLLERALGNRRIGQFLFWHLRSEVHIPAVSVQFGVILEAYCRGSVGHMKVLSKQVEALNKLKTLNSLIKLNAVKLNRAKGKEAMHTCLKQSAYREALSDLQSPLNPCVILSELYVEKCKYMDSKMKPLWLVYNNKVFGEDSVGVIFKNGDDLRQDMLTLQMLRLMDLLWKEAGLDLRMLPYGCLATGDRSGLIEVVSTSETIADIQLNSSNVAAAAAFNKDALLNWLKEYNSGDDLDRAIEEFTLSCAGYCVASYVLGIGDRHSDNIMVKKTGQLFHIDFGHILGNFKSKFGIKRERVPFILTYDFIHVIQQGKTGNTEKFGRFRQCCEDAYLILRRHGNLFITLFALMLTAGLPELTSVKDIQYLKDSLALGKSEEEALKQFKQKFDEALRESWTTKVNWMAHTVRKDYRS
Chain of Ephrin type-B receptor 3 (Homo sapiens) (P54753 whole entry, the tested form may be a part): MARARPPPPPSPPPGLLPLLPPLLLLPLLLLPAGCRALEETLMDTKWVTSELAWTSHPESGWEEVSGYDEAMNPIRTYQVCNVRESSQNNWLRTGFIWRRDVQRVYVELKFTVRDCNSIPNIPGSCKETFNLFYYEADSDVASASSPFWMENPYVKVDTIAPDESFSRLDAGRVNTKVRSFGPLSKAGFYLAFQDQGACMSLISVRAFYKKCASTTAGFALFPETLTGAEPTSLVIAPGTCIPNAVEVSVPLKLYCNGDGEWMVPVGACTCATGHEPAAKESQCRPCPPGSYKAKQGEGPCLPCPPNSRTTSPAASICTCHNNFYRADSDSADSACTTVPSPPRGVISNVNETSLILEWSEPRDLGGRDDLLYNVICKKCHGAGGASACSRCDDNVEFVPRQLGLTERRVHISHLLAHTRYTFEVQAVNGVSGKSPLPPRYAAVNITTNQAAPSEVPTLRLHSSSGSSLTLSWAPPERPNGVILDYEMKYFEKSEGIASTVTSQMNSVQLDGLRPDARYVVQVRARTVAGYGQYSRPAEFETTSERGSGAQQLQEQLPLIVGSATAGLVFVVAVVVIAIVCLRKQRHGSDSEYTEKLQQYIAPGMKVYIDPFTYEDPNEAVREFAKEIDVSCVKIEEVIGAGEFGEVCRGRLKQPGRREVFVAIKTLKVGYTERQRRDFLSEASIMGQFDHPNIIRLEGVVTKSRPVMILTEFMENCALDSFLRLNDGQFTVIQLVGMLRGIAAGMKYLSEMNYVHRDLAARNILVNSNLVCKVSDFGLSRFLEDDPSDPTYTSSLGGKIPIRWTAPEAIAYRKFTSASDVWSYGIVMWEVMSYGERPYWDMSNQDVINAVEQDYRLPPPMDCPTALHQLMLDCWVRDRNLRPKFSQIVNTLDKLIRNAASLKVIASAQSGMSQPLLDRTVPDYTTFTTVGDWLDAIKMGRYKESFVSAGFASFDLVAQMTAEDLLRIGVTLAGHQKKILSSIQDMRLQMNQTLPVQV
Chain of 5'-AMP-activated protein kinase catalytic subunit alpha-1 (Homo sapiens) (Q13131 whole entry, looked up, the tested form may be a part): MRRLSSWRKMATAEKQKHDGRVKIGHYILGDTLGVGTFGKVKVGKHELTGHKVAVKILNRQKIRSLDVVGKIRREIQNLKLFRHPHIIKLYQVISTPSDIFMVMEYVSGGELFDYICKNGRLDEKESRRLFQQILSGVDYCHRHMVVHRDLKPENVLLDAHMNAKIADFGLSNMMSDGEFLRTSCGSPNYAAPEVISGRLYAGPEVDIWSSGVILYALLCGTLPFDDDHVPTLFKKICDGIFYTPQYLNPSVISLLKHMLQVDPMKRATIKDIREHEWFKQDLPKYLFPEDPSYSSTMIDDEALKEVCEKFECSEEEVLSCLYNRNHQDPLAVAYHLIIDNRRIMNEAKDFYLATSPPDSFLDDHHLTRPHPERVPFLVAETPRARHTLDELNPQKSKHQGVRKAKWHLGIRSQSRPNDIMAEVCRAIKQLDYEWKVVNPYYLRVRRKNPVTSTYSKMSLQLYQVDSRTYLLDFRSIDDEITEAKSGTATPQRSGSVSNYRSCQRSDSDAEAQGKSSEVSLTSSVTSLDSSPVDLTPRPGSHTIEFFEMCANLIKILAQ

Broadly, the inhibition is how much of the control response was suppressed. For the molecule `O=C(Nc1cccc([C@@H]2CN(c3ncnc4[nH]ccc34)CCN2CCO)c1)Nc1c(F)cccc1N1CCCC1`, the inhibition is 23% in test [1]; 40% in test [2]; 100% in test [3]; 93% in test [4]; 100% in test [5]; 97% in [6]. The inhibition in test [7] is 92%; in [8], 79%; in test [9] it was 76%; in test [10], 97%; in test [11], 67%; in test [12] it was 61%. The inhibition in [13] was 100%; in test [14] it was 93%; in test [15], 74%; in test [16], 73%; in test [17] it was 6.1%; in [18] it was 91%. Also, the inhibition in test [19] stood at 60%.

Regarding `O=C(Nc1cccc([C@H]2CCCN(c3ncnc4[nH]ccc34)C2)c1)Nc1ccccc1N1CCCC1`, the inhibition amounted to 94% in test [20]; 50% in test [21]; 75% in [22]; 71% in test [23]; 94% in test [24]; 99% in [25]. Besides, in test [26], the inhibition was 100%.

The values above are taken from ChEMBL document CHEMBL4387741, “Optimization of novel reversible Bruton's tyrosine kinase inhibitors identified using Tethering-fragment-based screens” (Bioorg Med Chem, 2019).
